Here are results for 1 compound from patent US11274332B2, “Methods of administering 3,4-diaminopyridine” (SERB SA, priority 2011, dated 2022).

This data set deals with human hepatocytes. The data set is described as follows: In vitro metabolism of 14C-amifampridine in human hepatocytes (Example 3). Format: in vitro ADME. As to conditions: multiple donors. The protocol: The objective of this hepatocyte study was to determine the extent of metabolism, complete metabolic profile and metabolite characterization of amifampridine phosphate in several species with ^14C-amifampridine phosphate for a cross species comparison. The following procedures were used to study the metabolism in rat (Example 1), dog (Example 2), and human hepatocytes (Example 3).
The cryopreserved hepatocytes were removed from storage, quickly thawed in a 37° C. water bath for 1 to 2 min, and transferred to a 50 ml tube containing pre-warmed InVitroGRO HT medium (Celsis Inc., Baltimore). The cell suspension was mixed by gentle inversion and the cells were pelleted by centrifugation at 50 to 75×g for 5 min. The supernatant medium was removed and the cells were resuspended in Williams' Medium E. Hepatocyte viability was assessed by using trypan blue exclusion. Hepatocyte density was determined by counting cells with a hemocytometer and the density was adjusted with Williams' Medium E to achieve a final density of 1,000,000 cells/mL. […] The supernatant medium was removed and the cells were resuspended in cold Williams' Medium E. The cell density was then determined using a hemocytometer and the density was adjusted with Williams' Medium E to achieve a final density of 1,000,000 cells/mL. […]

Regarding `Nc1ccncc1N` [3,4-DAP, 3,4-diaminopyridine], the “formation of single major acetylated amifampridine metabolite” value is “variable”.
